# In ChEMBL document CHEMBL1154394, “The preparation of 2,6-disubstituted pyridinyl phosphine oxides as novel anti-cancer agents” (Bioorg Med Chem Lett, 2009):
# pIC50: −log10 of the molar value. Activity calls are given as the source filed them. The rule behind the calls is not given here.
# Experiments:
# MDA-MB-231 [1] = assay: Cytotoxicity against human MDA-MB-231 cells after 48 hrs by one step ATP lite assay; format: functional, cell-based
# SK-HEP1 [2] = assay: Cytotoxicity against human SKHEP1 cells after 48 hrs by one step ATP lite assay; format: functional, cell-based
# [3] = Cytotoxicity against non malignant human hematological disorder bone marrow cells after 48 hrs by one step ATP lite assay; format: cell-based; conditions: Bone marrow cell
# MDA-MB-231 [4] = assay: Induction of apoptosis in human MDA-MB-231 cells assessed as morphological changes at 60 uM after 48 hrs; format: functional, cell-based
# SK-HEP1 [5] = assay: Induction of apoptosis in human SKHEP1 cells assessed as morphological changes at 60 uM after 48 hrs; format: functional, cell-based
# MDA-MB-231 [6] = assay: Growth inhibition of human MDA-MB-231 cells at 70 uM after 48 hrs by one step ATP lite assay in presence of z-VAD-fmk; format: functional, cell-based
# SK-HEP1 [7] = assay: Growth inhibition of human SKHEP1 cells at 70 uM after 48 hrs by one step ATP lite assay in presence of z-VAD-fmk; format: functional, cell-based
# MDA-MB-231 [8] = assay: Growth inhibition of human MDA-MB-231 cells at 100 uM after 48 hrs by one step ATP lite assay; format: functional; conditions: MDA-MB-231, 48 h, read-out: GI
# SK-HEP1 [9] = assay: Growth inhibition of human SKHEP1 cells at 100 uM after 48 hrs by one step ATP lite assay; format: functional; design: scale not given: the % may be the effect or the level left
SMILES,Activity (MDA-MB-231 [1]),Activity (SK-HEP1 [2]),"pIC50 (MDA-MB-231 [1]; MDA-MB-231, 48 h)","pIC50 (SK-HEP1 [2]; SK-HEP1, 48 h)",pIC50 [3],Activity (MDA-MB-231 [4]),Activity (SK-HEP1 [5]),Activity (MDA-MB-231 [6]),Activity (SK-HEP1 [7]),inhibition of growth at 100 µM (MDA-MB-231 [8]),Activity (SK-HEP1 [9])
COc1cc(P(=O)(c2ccccc2)c2ccccc2)cc(OC)n1,Active,Active,–,–,–,–,–,–,–,–,–
COc1nc(OC)c(Br)c(P(=O)(c2ccccc2)c2ccccc2)c1Br,–,–,4.32,4.41,4.27,Active,Active,inactive,inactive,–,–
COc1cc(P(=O)(c2ccccc2)c2ccccc2)c(Br)c(OC)n1,–,–,–,–,–,Active,Active,–,–,30%,30%
